O=C(O)c1ccccc1Nc1ccccc1
solubility (mole fraction)
Conditions	in acetone	in acetonitrile	in ethanol	in ethyl acetate	in isopropanol	in methanol	in n-butanol	in n-propanol	in toluene
283.15 K	0.019	0.00147	0.00703	0.012	0.00593	0.00331	0.00849	0.00734	0.00238
285.65 K	0.0202	0.00171	0.00768	0.0133	0.00692	0.00381	0.00972	0.00831	0.00275
288.15 K	0.0223	0.00197	0.00854	0.0156	0.00805	0.00439	0.0112	0.00975	0.00321
290.65 K	0.0252	0.00228	0.00958	0.0182	0.00933	0.00521	0.013	0.0114	0.00374
293.15 K	0.0279	0.00268	0.0112	0.0213	0.0107	0.0061	0.0147	0.0132	0.00439
295.65 K	0.0304	0.00311	0.013	0.0235	0.0124	0.00723	0.0167	0.0152	0.00502
298.15 K	0.0335	0.00373	0.0152	0.0267	0.0144	0.00825	0.0187	0.0172	0.00573
300.65 K	0.0361	0.00425	0.0171	0.0301	0.0164	0.00944	0.0209	0.0194	0.00648
303.15 K	0.0399	0.00491	0.0196	0.034	0.0184	0.0106	0.0233	0.0216	0.00742
305.65 K	0.0427	0.00556	0.0219	0.0373	0.0208	0.0119	0.0256	0.0239	0.00841
308.15 K	0.0465	0.00617	0.0249	0.0414	0.0232	0.0129	0.0283	0.0266	0.0096
310.65 K	0.0499	0.00695	0.0276	0.0458	0.0254	0.0145	0.0311	0.0292	0.0109
313.15 K	0.0537	0.0078	0.0311	0.0503	0.0281	0.0164	0.0338	0.0322	0.0124
315.65 K	0.0582	0.00892	0.0339	0.0555	0.0309	0.0186	0.0367	0.035	0.014
318.15 K	0.063	0.0102	0.0374	0.0604	0.034	0.0212	0.0396	0.0383	0.0155

Reference: BigSolDB 2.1
